Source: patent US8772446B2, “Bifunctional chelating agents” (Nordion (Canada) Inc., priority 2010, dated 2014)

How the values were obtained:
[1] = Solution thermodynamics: formation constants (log KML) and pM of Ga(III) complexes, potentiometric titration; type: physicochemical; conditions: Ga(III) complex; ligand-ligand competition with EDTA, potentiometric titration, 25 °C, 0.16 M NaCl
Description: A more relevant indicator of the extent to which a metal complex is formed in solution is given by pM (−log free M) which considers the influence of ligand basicity and chelate hydrolysis.
Carbonate-free solutions of the titrant, NaOH, were prepared by dilution of 50% solution (Acros Organics) with freshly boiled MQ water under a stream of purified nitrogen gas. The solution was standardized with potassium acid phthalate and the extent of carbonate accumulation was periodically checked by titration with a standard hydrochloric acid solution and determination of the corresponding Gran titration plot.^47 Gallium ion solutions were prepared by dilution of the appropriate atomic absorption (AA) standard. The exact amount of acid present in the gallium standard was determined by titration of an equimolar solution of Ga and Na2H2EDTA. The amount of acid present was determined by Gran's method.^47
Data were collected in triplicate using PC Control (Version 6.0.91, Metrohm). The titration apparatus consisted of a 10 mL water jacketed glass vessel maintained at 25.0±0.1° C. (Julabo waterbath). Prior to and during the course of the titration, a blanket of nitrogen, passed through 10% NaOH to exclude any CO2, was maintained over the sample solution. The ionic strength was maintained at 0.16 M using NaCl. Prior to each potentiometric equilibrium study, the electrode was calibrated using standard HCl solutions. Calibration data were analysed by standard computer treatment provided within the program MacCalib to obtain the calibration parameters E0 and pKw.
As the degree of formation of Ga(III) complexes at low pH (<2) was too high for the determination of stability constants by use of direct potentiometry, the ligand-ligand competition method using Na2H2EDTA was also performed.

[2] = Biodistribution in female ICR mice; type: in vivo
Description: The protocol used in the animal studies was approved by the Institutional Animal Care Committee of the University of British Columbia and was performed in accordance with the Canadian Council on Animal Care Guidelines. A total of 16 female ICR (20-30 g) mice were used for the animal study of each of the three compounds. ^67Ga(dedpa)^+, ^67Ga(66)^+, or ^67Ga(69)^+ was prepared as described above and then diluted in phosphate buffered saline to a concentration of 100 μCi/mL. Each mouse was i.v. injected with ˜10 μCi (100 μL) of the ^67Ga complex and then sacrificed by CO2 inhalation at 30 min, 1 h, 2 h, or 4 h after injection (n=4 at each time point). Blood was collected by cardiac puncture and plasma was separated from whole blood by centrifuging (2500 rpm, 15 min). Urine was collected from the bladder. Tissues collected included kidney, liver, spleen, femur, muscle, heart, lung, intestine and brain. Tissues were weighed and counted on a gamma counter and the counts were converted to % injected dose/gram (% ID/g). Tables 4-6 show the biodistibution data of ^67Ga(dedpa)^+, ^67Ga(66)^+ and ^67Ga(69)^+, respectively, in female ICR mice. FIG. 4 illustrates biodistribution over 4 h of ^67Ga(dedpa)^+ in female ICR mice, and FIG. 5 illustrates biodistribution of ^67Ga(66)^+ (upper) and ^67Ga(69)^+ (lower) in female ICR mice over 4 h; complete data for urine are shown also in separate diagrams to the right.

[3] = Serum stability studies done in vitro (^67Ga); type: in vitro ADME
human apo-transferrin = human apo-transferrin (Homo sapiens, UniProt P02787); assay: ^67Ga complex stability: 2-h competition with excess human apo-transferrin, HPLC; conditions: ^67Ga complex, up to 2 h
Chain of human apo-transferrin (P02787 20-698): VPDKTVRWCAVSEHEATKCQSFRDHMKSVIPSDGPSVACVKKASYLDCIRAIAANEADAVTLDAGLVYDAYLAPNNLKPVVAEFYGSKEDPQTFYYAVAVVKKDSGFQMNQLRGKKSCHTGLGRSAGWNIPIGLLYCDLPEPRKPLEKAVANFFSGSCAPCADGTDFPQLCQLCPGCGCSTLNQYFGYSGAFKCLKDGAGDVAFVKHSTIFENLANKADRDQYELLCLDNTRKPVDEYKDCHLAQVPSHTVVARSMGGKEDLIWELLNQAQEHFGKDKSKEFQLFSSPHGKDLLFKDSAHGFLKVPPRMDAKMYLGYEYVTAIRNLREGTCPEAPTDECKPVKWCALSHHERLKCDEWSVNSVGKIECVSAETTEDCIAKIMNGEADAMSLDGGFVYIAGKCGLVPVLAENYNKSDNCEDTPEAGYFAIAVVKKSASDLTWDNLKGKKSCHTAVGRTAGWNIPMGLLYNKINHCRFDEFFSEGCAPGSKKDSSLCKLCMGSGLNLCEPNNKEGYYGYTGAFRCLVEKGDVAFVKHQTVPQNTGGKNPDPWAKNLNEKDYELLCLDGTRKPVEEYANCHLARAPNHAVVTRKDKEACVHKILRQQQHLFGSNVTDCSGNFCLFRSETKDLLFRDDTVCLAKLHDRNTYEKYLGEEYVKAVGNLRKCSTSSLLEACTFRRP
Description: FIG. 13 illustrates stacked labelling traces of ^67Ga(dedpa)^+ of 2 h stability experiment against apo-transferrin (gradient: A: NaOAc buffer, pH 4.5, B: MeOH. 0-100% B linear gradient 20 min).

O=C(O)c1cccc(CNCCNCc2cccc(C(=O)O)n2)n1 [^67Ga(dedpa)^+, metal not drawn]
log KML [1]: 28.11(8)
Biodistribution, Brain, 30 min ([2]; Brain, 30 min after i.v. injection, mean ± SD, 4 animals): 0.264 ± 0.132 % ID/g
Biodistribution, Brain, 1 h ([2]; Brain, 1 h after i.v. injection, mean ± SD, 4 animals): 0.246 ± 0.123 % ID/g
Biodistribution, Brain, 2 h ([2]; Brain, 2 h after i.v. injection, mean ± SD, 4 animals): 0.213 ± 0.106 % ID/g
Biodistribution, Brain, 4 h ([2]; Brain, 4 h after i.v. injection, mean ± SD, 4 animals): 0.139 ± 0.069 % ID/g
Biodistribution, Femur, 30 min ([2]; Femur, 30 min after i.v. injection, mean ± SD, 4 animals): 2.180 ± 1.090 % ID/g
Biodistribution, Femur, 1 h ([2]; Femur, 1 h after i.v. injection, mean ± SD, 4 animals): 2.136 ± 1.068 % ID/g
Biodistribution, Femur, 2 h ([2]; Femur, 2 h after i.v. injection, mean ± SD, 4 animals): 1.893 ± 0.946 % ID/g
Biodistribution, Femur, 4 h ([2]; Femur, 4 h after i.v. injection, mean ± SD, 4 animals): 2.218 ± 1.109 % ID/g
Biodistribution, Heart, 30 min ([2]; Heart, 30 min after i.v. injection, mean ± SD, 4 animals): 2.645 ± 1.323 % ID/g
Biodistribution, Heart, 1 h ([2]; Heart, 1 h after i.v. injection, mean ± SD, 4 animals): 2.490 ± 1.245 % ID/g
Biodistribution, Heart, 2 h ([2]; Heart, 2 h after i.v. injection, mean ± SD, 4 animals): 2.412 ± 1.206 % ID/g
Biodistribution, Heart, 4 h ([2]; Heart, 4 h after i.v. injection, mean ± SD, 4 animals): 2.004 ± 1.002 % ID/g
Biodistribution, Intestine, 30 min ([2]; Intestine, 30 min after i.v. injection, mean ± SD, 4 animals): 2.099 ± 1.050 % ID/g
Biodistribution, Intestine, 1 h ([2]; Intestine, 1 h after i.v. injection, mean ± SD, 4 animals): 2.123 ± 1.062 % ID/g
Biodistribution, Intestine, 2 h ([2]; Intestine, 2 h after i.v. injection, mean ± SD, 4 animals): 1.995 ± 0.998 % ID/g
Biodistribution, Intestine, 4 h ([2]; Intestine, 4 h after i.v. injection, mean ± SD, 4 animals): 1.990 ± 0.995 % ID/g
Biodistribution, Kidney, 30 min ([2]; Kidney, 30 min after i.v. injection, mean ± SD, 4 animals): 8.089 ± 4.009 % ID/g
Biodistribution, Kidney, 1 h ([2]; Kidney, 1 h after i.v. injection, mean ± SD, 4 animals): 7.827 ± 3.914 % ID/g
Biodistribution, Kidney, 2 h ([2]; Kidney, 2 h after i.v. injection, mean ± SD, 4 animals): 9.149 ± 4.575 % ID/g
Biodistribution, Kidney, 4 h ([2]; Kidney, 4 h after i.v. injection, mean ± SD, 4 animals): 8.301 ± 4.150 % ID/g
Biodistribution, Liver, 30 min ([2]; Liver, 30 min after i.v. injection, mean ± SD, 4 animals): 3.702 ± 1.851 % ID/g
Biodistribution, Liver, 1 h ([2]; Liver, 1 h after i.v. injection, mean ± SD, 4 animals): 3.695 ± 1.847 % ID/g
Biodistribution, Liver, 2 h ([2]; Liver, 2 h after i.v. injection, mean ± SD, 4 animals): 3.173 ± 1.586 % ID/g
Biodistribution, Liver, 4 h ([2]; Liver, 4 h after i.v. injection, mean ± SD, 4 animals): 2.736 ± 1.368 % ID/g
Biodistribution, Lung, 30 min ([2]; Lung, 30 min after i.v. injection, mean ± SD, 4 animals): 4.878 ± 2.439 % ID/g
Biodistribution, Lung, 1 h ([2]; Lung, 1 h after i.v. injection, mean ± SD, 4 animals): 4.896 ± 2.448 % ID/g
Biodistribution, Lung, 2 h ([2]; Lung, 2 h after i.v. injection, mean ± SD, 4 animals): 4.846 ± 2.423 % ID/g
Biodistribution, Lung, 4 h ([2]; Lung, 4 h after i.v. injection, mean ± SD, 4 animals): 3.260 ± 1.630 % ID/g
Biodistribution, Muscle, 30 min ([2]; Muscle, 30 min after i.v. injection, mean ± SD, 4 animals): 1.210 ± 0.605 % ID/g
Biodistribution, Muscle, 1 h ([2]; Muscle, 1 h after i.v. injection, mean ± SD, 4 animals): 1.153 ± 0.576 % ID/g
Biodistribution, Muscle, 2 h ([2]; Muscle, 2 h after i.v. injection, mean ± SD, 4 animals): 1.092 ± 0.546 % ID/g
Biodistribution, Muscle, 4 h ([2]; Muscle, 4 h after i.v. injection, mean ± SD, 4 animals): 1.127 ± 0.564 % ID/g
Biodistribution, Serum, 30 min ([2]; Serum, 30 min after i.v. injection, mean ± SD, 4 animals): 16.067 ± 8.033 % ID/g
Biodistribution, Serum, 1 h ([2]; Serum, 1 h after i.v. injection, mean ± SD, 4 animals): 9.047 ± 4.524 % ID/g
Biodistribution, Serum, 2 h ([2]; Serum, 2 h after i.v. injection, mean ± SD, 4 animals): 12.042 ± 6.021 % ID/g
Biodistribution, Serum, 4 h ([2]; Serum, 4 h after i.v. injection, mean ± SD, 4 animals): 12.235 ± 6.118 % ID/g
Biodistribution, Spleen, 30 min ([2]; Spleen, 30 min after i.v. injection, mean ± SD, 4 animals): 1.366 ± 0.683 % ID/g
Biodistribution, Spleen, 1 h ([2]; Spleen, 1 h after i.v. injection, mean ± SD, 4 animals): 1.357 ± 0.679 % ID/g
Biodistribution, Spleen, 2 h ([2]; Spleen, 2 h after i.v. injection, mean ± SD, 4 animals): 1.273 ± 0.637 % ID/g
Biodistribution, Spleen, 4 h ([2]; Spleen, 4 h after i.v. injection, mean ± SD, 4 animals): 0.989 ± 0.495 % ID/g
Excretion route (in words) ([2]; mice, i.v.): excreted mainly through the kidneys
Time to clearance from background tissue, such as muscle ([2]; mice, i.v.): ≤ 30 min
Bone uptake (in words) ([2]; mice, i.v., indicator for complex stability): low uptake in bone
Serum stability in vitro (in words) [3]: stable to transchelation by serum proteins
Complex stability against apo-transferrin (in words) (human apo-transferrin; listed as 67/68Ga(dedpa)^+): No decomposition was detected
Complex stability against apo-transferrin (in words) (human apo-transferrin; listed as 67Ga(dedpa)^+): fully intact
Complex stability against apo-transferrin (in words) (human apo-transferrin; listed as Ga(dedpa)^+): no decomposition was detected
